# From PMC4067310, “From Pan-Reactive KV7 Channel Opener to Subtype Selective Opener/Inhibitor by Addition of a Methyl Group” (PLoS ONE, 2014)
# How the values were obtained:
# [1] = system: human MDR1 (ABCB1, P-glycoprotein); test: Bidirectional permeability in MDR1-MDCK cells; type: in vitro ADME; conditions: dog, MDCK-MDR1, 150-min incubation at 37°C
# Experimental: (§1) The bidirectional permeability (Papp) of SMB-1 was examined in an MDCK cell system expressing human MDR1 [ABCB1, P-glycoprotein (P-gp)] as described previously. Permeation of the test compound from apical (A) to basal (B) direction or B to A direction was determined in triplicate over a 150-min incubation at 37°C. The efflux ratio was calculated as the ratio between Papp (B to A) and Papp (A to B). Free fraction of SMB-1 was determined using a standard equilibrium dialysis methodology with freshly isolated rat brain homogenate or plasma. Equilibrium dialysis was performed by incubating at 37°C for 5 h in triplicates.
# [2] = system: MDCK cell system expressing human MDR1 [ABCB1, P-glycoprotein (P-gp)]; test: Bidirectional permeability in MDR1-MDCK cells; type: in vitro ADME; conditions: judged from the efflux ratio in MDR1-MDCK cells
# Experimental: as §1
# KV7.4 = target: T1, KV7.4 (Homo sapiens, UniProt P56696); test: Two-electrode voltage-clamp of KV7.4 expressed in Xenopus laevis oocytes; type: cell-based
# T1 construct: expressed in transfected cells; host or cells: Xenopus laevis oocytes injected with cRNA (pGEM-HE vector)
# T1 sequence (P56696 1-695): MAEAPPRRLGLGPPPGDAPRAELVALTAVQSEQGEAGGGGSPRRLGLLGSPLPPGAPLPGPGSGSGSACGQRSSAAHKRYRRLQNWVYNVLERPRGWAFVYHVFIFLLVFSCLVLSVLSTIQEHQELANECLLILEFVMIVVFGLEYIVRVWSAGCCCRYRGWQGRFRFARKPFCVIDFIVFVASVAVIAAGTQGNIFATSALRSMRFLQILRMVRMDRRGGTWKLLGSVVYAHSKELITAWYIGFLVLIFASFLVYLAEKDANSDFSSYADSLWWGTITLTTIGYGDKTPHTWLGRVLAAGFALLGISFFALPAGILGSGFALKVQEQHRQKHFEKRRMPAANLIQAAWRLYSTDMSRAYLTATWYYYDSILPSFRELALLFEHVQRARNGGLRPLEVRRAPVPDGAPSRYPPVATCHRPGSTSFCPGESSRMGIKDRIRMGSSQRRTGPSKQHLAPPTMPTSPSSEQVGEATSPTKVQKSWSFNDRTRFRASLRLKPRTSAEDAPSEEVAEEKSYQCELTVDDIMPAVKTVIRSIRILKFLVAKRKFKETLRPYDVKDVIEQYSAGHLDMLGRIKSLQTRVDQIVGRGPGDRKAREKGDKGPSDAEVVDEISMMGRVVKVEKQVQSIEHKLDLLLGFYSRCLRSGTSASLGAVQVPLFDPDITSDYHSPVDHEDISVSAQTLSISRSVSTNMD
# Experimental: Point mutations were introduced using mutated oligonucleotide extension (PfuTurbo Polymerase, Stratagene, La Jolla, CA, USA) from a plasmid template harboring the cDNA of interest, digested with DpnI (Fermentas, St. Leon-Roth, Germany) and transformed into E.coli XL1 Blue cells. The construct was verified by complete DNA sequencing of the cDNA insert. cRNA was prepared from linearized human wild-type (WT) and mutant KV7 channels in the pGEM-HE vector using the T7 m-Message Machine kit (Ambion, Austin, TX, USA) according to the manufacturer's instructions.
# Extraction of Xenopus laevis oocytes and injection of cRNA was performed as described previously. Oocytes were kept in Modified Barth's Saline (in mM: 88 NaCl, 1 KCl, 2.4 NaHCO3, 0.41 CaCl2, 0.82 MgSO4, 0.3 Ca(NO3)2, 15 HEPES, pH 7.4 supplemented with 100 U/mL penicillin and 100 µg/mL streptomycin) at 18°C, and currents were recorded after 2-7 days. The care of Xenopus laevis and the oocyte extraction procedure were performed according to national guidelines and approved by the Danish Animal Experiments Inspectorate.
# KV7 currents in Xenopus laevis oocytes were recorded using two-electrode voltage-clamp at room temperature in Ringer buffer (in mM: 115 NaCl, 2.5 KCl, 1.8 CaCl2, 0.1 MgCl2, 10 HEPES, pH 7.4) as described previously. Data was acquired using pCLAMP 10.2 software (Molecular Devices, CA, USA) and analyzed using pCLAMP 10.2 and GraphPad Prism 4.0 (GraphPad Software Inc., CA, USA). Currents were elicited from a holding potential of −80 mV by 5 s steps to potentials between −100 and +50 mV in 10 mV increments, followed by a 2 s step to −120 mV.
# SMB-1 was dissolved in dimethyl sulfoxide (DMSO) to obtain a concentrated stock solution. On the day of experiments the stock solution was thawed and diluted in Ringer buffer to the final concentrations. A concentration of 10 µM SMB-1 was used unless indicated otherwise. The final DMSO concentration never exceeded 0.1%.
# Current – voltage (I–V) relationship curves were generated by normalizing the steady-state peak current measured at potentials between −100 and +50 mV to the current measured at +50 mV in control recordings and plotting the values against the test potential.
# The voltage-dependence of activation was determined from tail current analysis using the current measured immediately after the transient capacitive current after stepping to −120 mV from potentials between −100 mV and +50 mV. Data was normalized to extend from 0–1 and the tail current-voltage relationship was fitted to the Boltzmann equation: [drawing 1] (Equation\;1) where I max is the maximum tail current, I min is the minimum tail current, V0.5 is the potential for half maximal activation and k is the slope factor. A V0.5 was calculated for each individual experiment and statistical significance was estimated by paired two-tailed Student's t-test.
# Activation kinetics for KV7.4 and KV7.4-W242L was determined by fitting the traces recorded at potentials between −30 and +50 mV to a single exponential function: [drawing 3] (Equation\;3) where I(t) is the current at time t, I 0 is the peak current and τ is the activation time constant.
# For investigation of deactivation kinetics the tail current traces recorded at −120 mV when stepping from the channels' respective ∼V0.5 were fitted to a single exponential function (Eq. 3).
# Dose-response curves from electrophysiological experiments were made by plotting the increase in steady state current at +50 mV expressed in percentages as a function of drug concentration. The data were then analyzed by non-linear regression and fitted to the equation for sigmoidal dose-response with variable slope: [drawing 4] (Equation\;4) where R1 is the initial response, R2 is the maximum response, X is the logarithm of the drug concentration and nH is the slope (Hill coefficient) of the curve.
structure (smiles),measurement,setting,value
"C[C@@H](c1ccc2c(c1)N(CC1CC1)CCO2)N(C)C(=O)/C=C/c1ccccc1F [SMB-1, (E)-N-[(S)-1-(4-Cyclopropylmethyl-3,4-dihydro-2H-1,4-benzoxazin-6-yl)-ethyl]-3-(2-fluoro-phenyl)-N-methyl-acrylamide]",Papp at 150 min,"[1]; triplicate, read-out: membrane permeability (Papp)",2.5 ± 0.3 ×10⁻⁶ cm/s
same,efflux ratio at 150 min,"[1]; read-out: efflux ratio, Papp (B to A) / Papp (A to B)",0.7
same,substrate for the efflux transporter P-gp,[2],not identified as a substrate
same,"current amplitude, % of control at 10 µM","KV7.4; 10 µM SMB-1, +50 mV, n = 8",184 ± 12.4%
same,effect on τact,"KV7.4; 10 µM, at all potentials tested",significantly increased
same,"τdeact, deactivation time constant in presence of compound","KV7.4; 10 µM, control 10.3±0.6 ms, n = 8, p<0.001",16.4 ± 1.2 ms
same,"V0.5, voltage-dependence of activation in presence of compound","KV7.4; 10 µM, control −0.2±3.6 mV, n = 8, p = 0.59",−1.4±3.4 mV
same,Emax,"KV7.4; +50 mV, n = 5, read-out: maximal efficacy",213 ± 33.1%
same,EC50,"KV7.4; increase in steady state current at +50 mV, n = 5",5.7 µM
